The values that follow come from publication PMC6982702, “Extensive Structure Modification on Luteolin-Cinnamic Acid Conjugates Leading to BACE1 Inhibitors with Optimal Pharmacological Properties” (Molecules, 2019).

The nature of one series: MTT cytotoxicity assay. It counts as cell-based. Particulars: human, 24 h exposure. As for the experimental part: It is crucial for the BACE1 inhibitors to exert their activities at sub-toxic concentration, and thus their cytotoxicity was assessed in HEK293 cells by 3-[4,5-dimethylthiazol-2-yl]-2,5-diphenyl-tetrazolium bromide (MTT) assays (Table 5). […] Unfortunately, there was no obvious relationship between the structures and their cytotoxicity.
The cytotoxicity was examined by using 3-[4,5-dimethylthiazol-2-yl]-2,5-diphenyl-tetrazolium bromide (MTT) assay. HEK293T cells were seeded with complete DMEM into 96-well plates ([…], 100 µL/well), incubated at 37 °C in a humidified atmosphere with 5% CO2 for 24 h. All the compounds were diluted with the phenol red-free DMEM at a specific concentration. After 24 h of exposure to different concentrations of compound, the supernatant was removed and then 20% (v/v) MTT (5 mg/mL) diluted with fresh culture medium was added into each well and incubated for 4 h. Cells were lysed with 100 μL dimethyl sulfoxide (DMSO) and shaken for 10 min at room temperature. The absorbance in each well was detected at a wavelength of 490 nm using a Universal Microplate Reader (ELX 800 lv, BIO-TEK Instruments, Inc., Winooski, VT, USA).
Background: Tetrazolium dyes change colour on reduction, which living cells bring about.

The next series addresses T1, BACE1 (Homo sapiens, UniProt P56817).
T1 construct: purchased PanVera Co. (Invitrogen, USA)
Description: In vitro BACE1 FRET enzyme assay. It counts as biochemical. Particulars: BACE1 FRET assay; for inhibition at 10 µM: 10 μM compound, read-out: Inhibition Rate at 10 μM (%). As for the experimental part: The BACE1 FRET assay kit was purchased from the PanVera Co. (Invitrogen, USA). The assay was carried out according to the supplied manual with modifications. […] The fluorescence intensity was measured with a TECAN infinite 200 microplate reader for 60 min at 25 °C in the dark. […] The percent inhibition (%) was obtained by the following equation: Inhibition % = (1 −SS/SC) × 100%, where SC is the slope of fluorescence change of the control (enzyme, buffer, and substrate) during 60 min, and SS is the slope of fluorescence change of the tested samples (enzyme, sample solution, and substrate) during 60 min of measurement. IC50 values were calculated from the nonlinear curve fitting of percentage inhibition against inhibitor concentration using Prism 3.0 software (GraphPad Software, San Diego, CA, USA).

The mark [1] stands for this setting: HEK293 cells (method text: HEK293T).

Each structure is given as a SMILES string.

T1 sequence (P56817 46-501): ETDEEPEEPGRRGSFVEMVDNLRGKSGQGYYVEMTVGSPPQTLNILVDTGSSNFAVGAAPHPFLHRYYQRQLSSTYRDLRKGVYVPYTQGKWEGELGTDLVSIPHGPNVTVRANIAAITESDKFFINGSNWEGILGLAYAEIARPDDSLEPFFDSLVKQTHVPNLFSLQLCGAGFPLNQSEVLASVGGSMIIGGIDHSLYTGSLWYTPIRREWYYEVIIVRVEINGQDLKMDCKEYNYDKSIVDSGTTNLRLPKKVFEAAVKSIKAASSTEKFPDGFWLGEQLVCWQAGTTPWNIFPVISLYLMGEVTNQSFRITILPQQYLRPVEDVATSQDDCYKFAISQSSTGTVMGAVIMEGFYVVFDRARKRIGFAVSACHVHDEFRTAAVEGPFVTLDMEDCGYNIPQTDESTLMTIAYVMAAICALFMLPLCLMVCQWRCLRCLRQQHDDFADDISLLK

`O=C(/C=C/c1ccc(O)c(O)c1)OCCOc1cc(O)c2c(=O)cc(-c3ccc(O)c(O)c3)oc2c1` [Compound 7d] returned an IC50 at 24 h in “MTT cytotoxicity assay” (HEK293 cells (method text: HEK293T cells)) of 16.7 µM.

`O=C(/C=C/c1ccc(O)cc1)OCCCCCCCCOc1cc(O)c2c(=O)cc(-c3ccc(O)c(O)c3)oc2c1` [Compound 5e, (E)-8-((2-(3,4-dihydroxyphenyl)-5-hydroxy-4-oxo-4H-chromen-7-yl)oxy)octyl 3-(4-hydroxyphenyl)acrylate]: the inhibition at 10 µM on BACE1 was found to be 36.1 ± 2.6%. `O=C(CCc1ccc(O)cc1)OCCOc1cc(O)c2c(=O)cc(-c3ccc(O)c(O)c3)oc2c1` [Compound 7p, 2-((2-(3,4-dihydroxyphenyl)-5-hydroxy-4-oxo-4H-chromen-7-yl)oxy)ethyl 3-(4-hydroxyphenyl)propanoate] displayed an IC50 at 24 h in “MTT cytotoxicity assay” (setting [1]) of 90 µM. Moreover, at BACE1, the IC50 was found to be 4.39 ± 0.34 µM and the inhibition at 10 µM was determined as 56.7 ± 4.4%. For `O=C(/C=C/c1ccc(O)cc1)Oc1ccc(-c2cc(=O)c3c(O)cc(O)cc3o2)cc1` [Compound 4f], on BACE1, the inhibition at 10 µM worked out at 29.4 ± 5.5%. `O=C(/C=C/c1ccoc1)OCCOc1cc(O)c2c(=O)cc(-c3ccc(O)c(O)c3)oc2c1` [Compound 7l, (E)-2-((2-(3,4-dihydroxyphenyl)-5-hydroxy-4-oxo-4H-chromen-7-yl)oxy)ethyl 3-(furan-3-yl)acrylate] displayed an IC50 at 24 h in the series “MTT cytotoxicity assay” (setting [1]) of 9.51 µM. In addition, at BACE1, the concentration for half-maximal inhibition (IC50) stood at 0.37 ± 0.25 µM and the inhibition at 10 µM was determined as 59.5 ± 7.1%. On to `O=C(/C=C/c1ccc(O)cc1)Oc1cccc(-c2cc(=O)c3c(O)cc(O)cc3o2)c1` [Compound 4b], for which, on BACE1, the inhibition at 10 µM stood at 14.8 ± 7.35%. As for `O=C(/C=C/c1ccc([N+](=O)[O-])cc1)OCCOc1cc(O)c2c(=O)cc(-c3ccc(O)c(O)c3)oc2c1` [Compound 7g, (E)-2-((2-(3,4-dihydroxyphenyl)-5-hydroxy-4-oxo-4H-chromen-7-yl)oxy)ethyl 3-(4-nitrophenyl)acrylate], in the series “MTT cytotoxicity assay” (setting [1]), half-maximal inhibition (IC50 at 24 h) was put at 21.8 µM. For the same molecule, on BACE1, the IC50 came to 0.96 ± 1.55 µM and the inhibition at 10 µM is 73.9 ± 7.1%. As to `O=C(/C=C/c1ccc(O)cc1)OCCOCCOc1ccc(-c2cc(=O)c3c(O)cc(O)cc3o2)cc1` [Compound 4i], the inhibition at 10 µM at BACE1 turned out to be 37 ± 8.6%.

On to `O=C(C=Cc1ccccc1)OCCOc1cc(O)c2c(=O)cc(-c3ccc(O)c(O)c3)oc2c1` [Compound 7a, 2-((2-(3,4-dihydroxyphenyl)-5-hydroxy-4-oxo-4H-chromen-7-yl)oxy)ethyl cinnamate], for which the IC50 at 24 h in the series “MTT cytotoxicity assay” (setting [1]) was > 100 µM. In addition, at BACE1, the IC50 was 2.49 ± 0.32 µM and the inhibition at 10 µM was found to be 57.5 ± 7.5%. Consider `O=C(/C=C/c1ccc(O)cc1)OCCOc1cccc(-c2cc(=O)c3c(O)cc(O)cc3o2)c1` [Compound 4d], for which the inhibition at 10 µM at BACE1 came out at 39.6 ± 12.5%. Same read-out and setting: then `CC(=O)Oc1ccc(/C=C/C(=O)OCCOc2ccc(-c3cc(=O)c4c(O)cc(O)cc4o3)cc2)cc1` [Compound 4g], with 17.1 ± 6%. As for `O=C(/C=C/c1ccc(O)cc1)Oc1cc(O)c2c(=O)cc(-c3ccc(O)c(O)c3)oc2c1` [Compound 5g], inhibition in “MTT cytotoxicity assay” (setting [1]) was half-maximal at 4.21 µM (IC50 at 24 h). Besides, the inhibition at 10 µM on BACE1 was determined as 41.4 ± 4.4%. With `O=C(/C=C/c1ccc(O)cc1)OCCOc1ccc(-c2cc(=O)c3c(O)cc(O)cc3o2)cc1` [Compound 4h], on BACE1, the inhibition at 10 µM was 36 ± 4.2%. For `O=C(/C=C/c1ccc(O)cc1)OCCOc1ccc2oc(-c3ccc(O)c(O)c3)cc(=O)c2c1` [Compound 4k], on BACE1, inhibition was half-maximal at 12.9 ± 1.14 µM (IC50) and the inhibition at 10 µM was determined as 60.6 ± 5.3%. The like results for `O=C(/C=C/c1ccc(O)cc1)OCCCCCOc1cc(O)c2c(=O)cc(-c3ccc(O)c(O)c3)oc2c1` [Compound 5c, (E)-5-((2-(3,4-dihydroxyphenyl)-5-hydroxy-4-oxo-4H-chromen-7-yl)oxy)pentyl 3-(4-hydroxyphenyl)acrylate] were, in that order, 20.6 ± 1.44 µM and 62.6 ± 6.4%. Consider `O=C(/C=C/c1ccc(O)cc1)OCCCCOc1cc(O)c2c(=O)cc(-c3ccc(O)c(O)c3)oc2c1` [Compound 5b, (E)-4-((2-(3,4-dihydroxyphenyl)-5-hydroxy-4-oxo-4H-chromen-7-yl)oxy)butyl 3-(4-hydroxyphenyl)acrylate], for which, at BACE1, the IC50 is 10.4 ± 1.02 µM and the inhibition at 10 µM was 68.1 ± 5.8%. Regarding `CC(C)(C)c1ccc(/C=C/C(=O)OCCOc2cc(O)c3c(=O)cc(-c4ccc(O)c(O)c4)oc3c2)cc1` [Compound 7j, (E)-2-((2-(3,4-dihydroxyphenyl)-5-hydroxy-4-oxo-4H-chromen-7-yl)oxy)ethyl 3-(4-(tert-butyl)phenyl)acrylate], the IC50 at 24 h in “MTT cytotoxicity assay” (setting [1]) came to 20.3 µM. Further, the inhibition at 10 µM at BACE1 was found to be 37.6 ± 4.4%.

In “MTT cytotoxicity assay” (setting [1]), `O=C(/C=C/c1ccc(Cl)cc1)OCCOc1cc(O)c2c(=O)cc(-c3ccc(O)c(O)c3)oc2c1` [Compound 7f, (E)-2-((2-(3,4-dihydroxyphenyl)-5-hydroxy-4-oxo-4H-chromen-7-yl)oxy)ethyl 3-(4-chlorophenyl)acrylate] yielded an IC50 at 24 h of 9.97 µM. The inhibition at 10 µM on BACE1 is 21.3 ± 7.1%. As for `O=C(/C=C/C1CCCCC1)OCCOc1cc(O)c2c(=O)cc(-c3ccc(O)c(O)c3)oc2c1` [Compound 7m, (E)-2-((2-(3,4-dihydroxyphenyl)-5-hydroxy-4-oxo-4H-chromen-7-yl)oxy)ethyl 3-cyclohexylacrylate], the IC50 at 24 h in the series “MTT cytotoxicity assay” (setting [1]) stood at 14.4 µM. Moreover, the inhibition at 10 µM on BACE1 is 22.2 ± 7.1%. As for `O=C(/C=C/c1ccc(O)cc1)OCCCCCCOc1cc(O)c2c(=O)cc(-c3ccc(O)c(O)c3)oc2c1` [Compound 5d, (E)-6-((2-(3,4-dihydroxyphenyl)-5-hydroxy-4-oxo-4H-chromen-7-yl)oxy)hexyl 3-(4-hydroxyphenyl)acrylate], the inhibition at 10 µM on BACE1 was 42.4 ± 3.2%. In the case of `O=C(/C=C/c1ccc(O)cc1)OCCCOc1cc(O)c2c(=O)cc(-c3ccc(O)c(O)c3)oc2c1` [Compound 5a, (E)-3-((2-(3,4-dihydroxyphenyl)-5-hydroxy-4-oxo-4H-chromen-7-yl)oxy)propyl 3-(4-hydroxyphenyl)acrylate], at BACE1, the IC50 worked out at 5.26 ± 0.72 µM and the inhibition at 10 µM came to 81.4 ± 3.8%. In the series “MTT cytotoxicity assay” (setting [1]), `O=C(/C=C/c1ccc(F)cc1)OCCOc1cc(O)c2c(=O)cc(-c3ccc(O)c(O)c3)oc2c1` [Compound 7e, (E)-2-((2-(3,4-dihydroxyphenyl)-5-hydroxy-4-oxo-4H-chromen-7-yl)oxy)ethyl 3-(4-fluorophenyl)acrylate] showed an IC50 at 24 h of 16.8 µM. In addition, the inhibition at 10 µM on BACE1 turned out to be 28.5 ± 7.1%.

In the case of `O=C(/C=C/c1ccc(O)cc1)OCCCCCCCCCCOc1cc(O)c2c(=O)cc(-c3ccc(O)c(O)c3)oc2c1` [Compound 5f, (E)-10-((2-(3,4-dihydroxyphenyl)-5-hydroxy-4-oxo-4H-chromen-7-yl)oxy)decyl 3-(4-hydroxyphenyl)acrylate], on BACE1, half-maximal inhibition (IC50) required 27.8 ± 1.34 µM and the inhibition at 10 µM is 58.2 ± 3.3%. Regarding `CC(=O)Oc1ccc(/C=C/C(=O)Oc2ccc(-c3cc(=O)c4c(O)cc(O)cc4o3)cc2)cc1` [Compound 4e], the inhibition at 10 µM on BACE1 stood at 1.9 ± 10.3%. Still for that read-out and setting: then `CC(=O)Oc1ccc(/C=C/C(=O)OCCOc2cccc(-c3cc(=O)c4c(O)cc(O)cc4o3)c2)cc1` [Compound 4c], with 31.8 ± 5.25%; and `CC(=O)Oc1ccc(/C=C/C(=O)Oc2cccc(-c3cc(=O)c4c(O)cc(O)cc4o3)c2)cc1` [Compound 4a], with 23.9 ± 2.95%. Regarding `O=C(/C=C/c1ccc(O)cc1)OCCOc1c(-c2ccc(O)c(O)c2)oc2cc(O)cc(O)c2c1=O` [Compound 4j, 2-((2-(3,4-dihydroxyphenyl)-5,7-dihydroxy-4-oxo-4H-chromen-3-yl)oxy)ethyl(E)-3-(4-hydroxyphenyl)acrylate], on BACE1, the IC50 was found to be 6.78 ± 0.83 µM and the inhibition at 10 µM came to 59.2 ± 6.3%.

Usually IC50 stands for the concentration needed to halve the response being measured. High values mean weaker potency in that assay, low ones greater potency in that assay. As a reminder, the inhibition is the relative decrease from the control value, in per cent.
